Measurements from ChEMBL document CHEMBL6114982, “Structural optimization and characterization of highly potent and selective STAT3 inhibitors for the treatment of triple negative breast cancer” (Eur J Med Chem, 2025).
The source made the active and inactive calls. The rule behind the calls is not given here.

Columns and labels:
[1] = biological target: T1, Signal transducer and activator of transcription 3 (Homo sapiens, UniProt P40763); assay: Competitive binding affinity to STAT3 SH2 domain (unknown origin) expressed in HEK293T cells assessed as decrease in fluorescence intensity by dual luciferase analysis; type: cell-based; settings: dose 0.05-0.5 µM
T1 sequence (P40763 whole entry, the tested form may be a part): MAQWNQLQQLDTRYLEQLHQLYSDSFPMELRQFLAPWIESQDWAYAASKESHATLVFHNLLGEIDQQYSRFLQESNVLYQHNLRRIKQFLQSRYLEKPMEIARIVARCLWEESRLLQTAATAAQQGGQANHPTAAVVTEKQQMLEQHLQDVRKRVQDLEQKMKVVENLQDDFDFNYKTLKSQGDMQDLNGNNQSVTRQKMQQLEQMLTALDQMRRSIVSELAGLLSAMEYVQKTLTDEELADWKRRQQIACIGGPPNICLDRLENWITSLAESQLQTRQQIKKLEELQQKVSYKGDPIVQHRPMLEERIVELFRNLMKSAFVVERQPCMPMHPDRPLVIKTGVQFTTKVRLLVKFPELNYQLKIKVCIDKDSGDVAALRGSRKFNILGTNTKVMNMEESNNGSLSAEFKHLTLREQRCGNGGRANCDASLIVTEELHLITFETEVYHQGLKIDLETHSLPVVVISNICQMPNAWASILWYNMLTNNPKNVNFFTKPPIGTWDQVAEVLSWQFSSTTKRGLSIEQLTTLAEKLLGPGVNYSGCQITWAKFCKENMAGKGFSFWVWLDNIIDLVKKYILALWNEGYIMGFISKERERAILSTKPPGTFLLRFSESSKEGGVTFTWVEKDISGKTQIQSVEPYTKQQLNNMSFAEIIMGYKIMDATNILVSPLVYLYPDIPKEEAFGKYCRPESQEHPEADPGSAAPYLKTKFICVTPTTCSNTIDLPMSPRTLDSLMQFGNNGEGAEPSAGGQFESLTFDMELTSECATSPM

BT-549 [2] = assay: Effect on STAT1 phosphorylation level in human BT-549 cells at 0.05 to 0.5 uM measured after 48 hrs by Western blot analysis; type: functional, cell-based; settings: dose 0.05-0.5 µM
MDA-MB-231 [3] = assay: Downregulation of cyclin D1 level in human MDA-MB-231 cells measured after 48 hrs by Western blot analysis; type: functional, cell-based; settings: dose 0.05-0.5 µM
BT-549 [4] = assay: Inhibition of cell migration in human BT-549 cells assessed as reduction in wound closure proportion at 0.05 to 0.5 uM incubated for 24 hrs by inverted microscopic analysis; type: functional, cell-based; settings: dose 0.05-0.5 µM
[5] = Toxicity in female BALB/c nude mouse assessed as effect on kidney at 10 to 20 mg/kg, iv measured after 30 days by H and E staining based analysis; type: organism-based; settings: in vivo, 720 h, dose 10-20 mg/kg, time 30 day
MDA-MB-231 [6] = assay: Induction of apoptosis in human MDA-MB-231 cells assessed as late apoptotic at 0.1 uM incubated for 48 hrs by Annexin V and PI staining based flow cytometry analysis (reference value: 2.71%); type: functional
MDA-MB-231 [7] = assay: Inhibition colony formation in human MDA-MB-231 cells harbouring STAT3 siRNA at 0.1 uM after 14 days by crystal violet staining based analysis; type: functional, cell-based; settings: time 14.0 day
BT-549 [8] = assay: Downregulation of CD44 expression in human BT-549 cells by Western blot analysis; type: functional, cell-based
[9] = biological target: T1, Signal transducer and activator of transcription 3; assay: Inhibition of STAT3 phosphorylation in human MDA-MB-231 cells assessed as downregulation of KRT10 expression level; type: cell-based

COc1cccc(C(=O)Nc2sc3c(c2C#N)CCN(C(=O)Nc2ccccc2OC)C3)c1
Activity [1]: Dose-dependent-effect | Activity (BT-549 [2]): inactive | Activity (MDA-MB-231 [3]): Dose-dependent-effect | inhibition (BT-549 [4]): Active | Activity [5]: Non-toxic | Activity (MDA-MB-231 [6]): 16.08% | inhibition (MDA-MB-231 [7]): inactive | Activity (BT-549 [8]): Active | inhibition [9]: Active
